Experimental findings from patent US20100292260A1, “6-VINYL PYRIMIDINE AND PYRIMIDINONE DERIVATIVES AND THE USE THEREOF” (priority 2005, published 2010) are described below.

Read-outs that look alike come from different tables or passages of the source. Some results are limits rather than exact numbers.

Usually CC50 stands for the concentration at which the toxic effect on the cells reaches its halfway point.

Data set [1] relates to wild strain of HIV-1 NL4-3. The data set can be described thus: Inhibition of viral proliferation on culture cells (MT-4, MTT), wild strain. Type of data set: cell-based. As to the method: (§1) The biological activity of the compounds was evaluated on lymphoid cell lines MT-4 against the wild strain of HIV-1 NL4-3. The MT-4 cells were briefly infected with the appropriate HIV-1 or the infection was simulated to determine the cytoxicity, in the presence of different concentrations of potential inhibitor compounds. 5 days after the infection a colorimetric method was used that involves using a tetrazole salt (MTT) to evaluate the number of surviving cells. The mutant IRLL98 HIV-1 contains the following mutations in the coding sequence for RT:M41L, D67N, Y181C, M184V, R211K, T215Y (resistance to NRTI) and the mutations K101Q, Y181C, G190A (resistance to NNRTI). The H1V-1 mutants containing multi-NNRTI mutations, K103N or Y188L as mutants were supplied by the Medical Research Council Centralised Facility for AIDS Reagents, Herfordshire, UK.

In a further data set the test system is HIV-1 mutant K103N. The data set can be described thus: Inhibition of viral proliferation on culture cells (MT-4, MTT), K103N mutant. In kind it is cell-based. As to the method:
as §1

The test system of another data set is MT-4 cells. Kind of data set: Cytotoxicity in mock-infected MT-4 cells (MTT). In kind it is cell-based. The protocol:
as §1

A further data set deals with HIV-1 mutant Y181L. Kind of data set: Inhibition of viral proliferation on culture cells (MT-4, MTT), Y181L mutant. In kind it is cell-based.
The target of data set [2] is T1, HIV-1 (recombinant) reverse transcriptase (Human immunodeficiency virus type 1 group M subtype B, UniProt P03366).
T1 construct: 20-50 nM HIV-1 (recombinant) reverse transcriptase
The data set can be described thus: Enzyme test: reverse transcription reaction in vitro with recombinant RT, wild type. In kind it is biochemical. The protocol:
(§2) In a final volume of 25 microlitres the following reagents were mixed: 50 mM Tris-HCl pH 7.5, 0.25 mg/ml BSA, 0.5 mM DTT, 20-50 nM HIV-1 (recombinant) reverse transcriptase, nucleotide substrate dTTP marked radioactively (^3H, 4 Ci/mmol) and nucleic acid (poly(rA)/oligo(dT)). The concentrations of dTTP and poly(rA)/oligo(dT) in standard conditions were 5 μM and 0.5 μM, respectively.
(§3) The reaction mixture is incubated 10 min. at 37° C. and 20 μl are removed and deposited on a GF/C Whatman glass fibre filter measuring 25 mm in diameter. The filters are washed 3 times for 5 min. in 5% trichloroacetic acid and once for 5 min. in absolute alcohol. After being dried, the filters are immersed in a scintillating mixture (Packard) and the acid precipitable radioactivity is measured by a scintillation counter for β-emitting isotopes (Beckman).
(§4) The dose-response curves obtained by means of samples of enzyme activity in the presence of increasing doses of inhibitor were analysed according to the equation E(%)=Emax/([…], where E(%) is the fraction of enzyme activity that is measurable in the presence of each concentration of inhibitor, Emax is the activity in the absence of an inhibitor, I is the concentration of inhibitor. The ID50 was calculated by analysing data using the GraphPad Prism graphic interpolation programme (for Macintosh).

The nature of data set [3]: Cytotoxicity in mock-infected MT-4 cells (MTT). In kind it is cell-based. Conditions: human. As to the method: as §1
The target of data set [4] is T2, reverse transcriptase containing the mutation K103N (Human immunodeficiency virus type 1 group M subtype B, UniProt P03366, K702N).
T2 construct: cloning the gene of the mutated RT in an expression vector for prokariotic cells; made in house
The data set can be described thus: Enzyme test with mutated reverse transcriptase K103N. Type of data set: biochemical, HIV-1. As to the method: as §2, §3
(§5) In some experiments, the HIV-1 recombinant reverse transcriptase was substituted by a reverse transcriptase containing the mutations K.103N and Y181I. They were produced by cloning the gene of the mutated RT in an expression vector for prokariotic cells according to the method reported in the literature (Maga G, Amacker M, Ruel N, Hubscher U, Spadari S. Resistance to nevirapine of HIV-1 reverse transcriptase mutants: loss of stabilizing interactions and thermodynamic or steric barriers are induced by different single amino acid substitutions. J Mol Biol. Dec. 19, 1997; 274(5):738-47).
as §4

Data set [5] deals with T3, reverse transcriptase containing the mutation Y181I (Human immunodeficiency virus type 1 group M subtype B, UniProt P03366, Y780I).
T3 construct: cloning the gene of the mutated RT in an expression vector for prokariotic cells; made in house
Kind of data set: Enzyme test with mutated reverse transcriptase Y181I. Type of data set: biochemical, HIV-1. The protocol:
as §2, §3, §5, §4

The next data set deals with HIV-1 mutant Y181C. The data set can be described thus: Inhibition of viral proliferation on culture cells (MT-4, MTT), Y181C mutant. Conditions: for EC50: Human immunodeficiency virus 1, read-out: Y181C. In kind it is cell-based. As to the method:
as §1

In a further data set the test system is HIV-1 mutant Y188L. Kind of data set: Inhibition of viral proliferation on culture cells (MT-4, MTT), Y188L mutant. In kind it is cell-based. The protocol:
as §1

The mark [6] stands for this setting: Table 1, MT-4 cells, read-out: EC50 NL4-3 wt.
Where [7] appears, read: Table 1, recombinant RT wild type, read-out: ID50 WT.
[8] abbreviates: Human immunodeficiency virus 1, NL43, MT4, read-out: EC50 NL4-3 wt.
Where [9] appears, read: Human immunodeficiency virus 1, MT4, read-out: EC50 K103N.
The mark [10] stands for this setting: Human immunodeficiency virus 1, MT4, read-out: EC50 Y181L.
[11] abbreviates: Table 2, enzyme test, read-out: WT.
Where [12] appears, read: Human immunodeficiency virus 1, NL43, read-out: NL4-3 wt.
The mark [13] stands for this setting: Human immunodeficiency virus 1, read-out: K100N.
Setting [14] is: Human immunodeficiency virus 1, read-out: Y188L.

As to `C=Cc1cc(N(CC)CC)nc(SCc2ccc(OC)cc2)n1` [6′a], the EC50 in data set [1] (setting [6]) was more than 33 µM; in the data set on HIV-1 mutant K103N (Table 1, MT-4 cells, read-out: EC50 K103N), 3.6 µM; in the data set on HIV-1 mutant Y181L (Table 1, MT-4 cells, read-out: EC50 Y181L), more than 35.8 µM. This molecule registered a CC50 in the data set with MT-4 cells of 33 µM.
On to `C=Cc1cc(N(CC)CC)nc(S(=O)(=O)Cc2ccc(OC)cc2)n1` [8′], for which the IC50 in data set [2] (setting [7]) came to 467 µM. Also, in [1] (setting [6]), the EC50 was more than 42.9 µM. In addition, the CC50 in the data set with MT-4 cells came to 42.9 µM.
Take `C=Cc1cc(N(C)C)nc(SC)n1` [Compound 6c]: the IC50 in data set [2] (setting [7]) was more than 400 µM. Further, the EC50 (in data set [1] (setting [8]); with HIV-1 mutant K103N (setting [9]); with HIV-1 mutant Y181L (setting [10])) was more than 128 µM in each case. In addition, half-maximal cytotoxicity in data set [3] (CC50 at 5 days) was put at 57.4 µM.
On to `C=Cc1cc(N(C)C)nc(S(C)(=O)=O)n1` [Compound 8a], for which the “increase in activity in relation to the wild type enzyme” value in data set [2] turned out to be 2900 times. In [2] (FIG. 1), the “inhibition of the RT at different concentrations of dTTP” value was “decreases with the increase of the concentrations of TTP”. Besides, the “apparent affinity (Kapp) of the RT for dTTP” value in data set [2] (FIG. 2, different concentrations of 8a) is listed as “decreases as the concentration of 8a increases”. In data set [2] (FIG. 3), the “inhibition of the RT at different concentrations of poly(rA)/oligo(dT)” value was “increase of the capacity thereof to inhibit RT”. For the same molecule, the “preferred enzyme form bound” value in [2] (FIG. 3) is listed as “preferentially binds to the binary complex of the RT with the nucleic acid”. The IC50 is 0.022 µM in data set [2] (setting [7]), 28 µM in [4] and 78 µM in data set [5]. Further, in data set [2] (compared with MB3B), the “reverse transcriptase ID50 greater than that of MB3B” value is listed as 3 orders of magnitude. In [2] (versus nucleotide substrate), the “action mechanism: inhibition of reverse transcriptase” value is “competitive with the nucleotide”. For the same molecule, the “activity in cell tests on wild type, in words” value in [1] was “did not show appreciable activity”. Moreover, the EC50 (in data set [1] (setting [8]); in the data set with HIV-1 mutant K103N (setting [9]); in the data set on HIV-1 mutant Y181L (setting [10])) was more than 110 µM throughout. For the same molecule, it took 110 µM to reach half-maximal cytotoxicity in [3] (CC50 at 5 days). Moreover, the “activity against enzyme with resistance mutation in position 103, in words” value in data set [4] was “significantly active”. Besides, the “activity against enzyme with resistance mutation in position 181, in words” value in data set [5] is reported as “significantly active”.
As for `C=Cc1nc(S(C)(=O)=O)nc(N(C)C)c1I` [Compound 8b], the IC50 in data set [2] (setting [7]) is 275 µM; in [4], more than 400 µM; in data set [5], more than 400 µM. In addition, the EC50 (in data set [1] (setting [8]); with HIV-1 mutant K103N (setting [9]); in the data set with HIV-1 mutant Y181L (setting [10])) was more than 22.9 µM each time. This molecule also returned a CC50 at 5 days in [3] of 22.9 µM.
As for `CCc1c(C(C)c2c(F)cccc2F)nc(SCC=Cc2ccc(OC)cc2)[nH]c1=O` (centres unmarked) [Compound 26p], the IC50 in data set [2] (setting [11]) was 0.016 µM; in [4] it was 0.4 µM; in data set [5], more than 20 µM. The “activity in cell tests on wild type, in words” value in data set [1] was “nanomolar and subnanomolar activity”. Further, the EC50 was 0.0002 µM in [1] (setting [12]), 1.02 µM in the data set with HIV-1 mutant K103N (setting [13]), 0.7 µM in the data set on HIV-1 mutant Y181C and 0.63 µM in the data set on HIV-1 mutant Y188L (setting [14]). Further, in the data set on HIV-1 mutant K103N, the “activity in cell tests on mutant K103N, in words” value is “micromolar and submicromolar activity”. The same molecule yielded a CC50 at 5 days in data set [3] of 5.54 µM. The “activity in cell tests on mutant Y181C, in words” value with HIV-1 mutant Y181C is “micromolar and submicromolar activity”. Besides, the “activity in cell tests on mutant Y188L, in words” value with HIV-1 mutant Y188L is “micromolar and submicromolar activity”.
Consider `CCc1c(C(C)c2c(F)cccc2F)nc(SCC=Cc2ccc([N+](=O)[O-])cc2)[nH]c1=O` (centres unmarked) [Compound 26q], for which the values for the IC50 in [2] (setting [11]), in data set [4] and in data set [5] were 0.009 µM, more than 20 µM and more than 20 µM, respectively. Also, the “activity in cell tests on wild type, in words” value in [1] is “nanomolar and subnanomolar activity”. Further, the EC50 in data set [1] (setting [12]) is 0.0004 µM; in the data set on HIV-1 mutant K103N (setting [13]) it was more than 5.75 µM; with HIV-1 mutant Y181C, more than 5.75 µM; in the data set on HIV-1 mutant Y188L (setting [14]), 1.94 µM. For the same molecule, the midpoint of cytotoxicity in [3], the CC50 at 5 days, lay at 5.75 µM.
With `COc1ccc(C#CCSc2nc(Cc3c(Cl)cccc3Cl)c(C)c(=O)[nH]2)cc1` [Compound 27c], the EC50 in [1] (Table 3, cell test, read-out: NLA-3wt) was 2.47 µM; in the data set with HIV-1 mutant K103N (Table 3, cell test, read-out: K103N), more than 56.2 µM; with HIV-1 mutant Y188L (Table 3, cell test, read-out: Y188L), more than 56.2 µM. Further, the CC50 with MT-4 cells (Table 3, read-out: CC50) was more than 56.2 µM. In the data set with HIV-1 mutant Y181C (Table 3, at 56.18), the “Y181C, % at given concentration” value worked out at 40% at.
